Test [1] concerns the target T1, chABCD1 (chimeric ABCD1) (Homo sapiens, UniProt P33897).
T1 construct: single polypeptide: N-terminal FLAG tag, PMP-4 residues 1-65 replacing human ABCD1 residues 1-63, then human ABCD1 64-745; HEK293F; homodimer; LMNG/CHS for assays, digitonin for cryo-EM; with PMP-4 (peroxisomal membrane protein related, ABCD1 homolog, Caenorhabditis elegans; N-terminal segment fused to the target chain)
T1 sequence (P33897 64-745): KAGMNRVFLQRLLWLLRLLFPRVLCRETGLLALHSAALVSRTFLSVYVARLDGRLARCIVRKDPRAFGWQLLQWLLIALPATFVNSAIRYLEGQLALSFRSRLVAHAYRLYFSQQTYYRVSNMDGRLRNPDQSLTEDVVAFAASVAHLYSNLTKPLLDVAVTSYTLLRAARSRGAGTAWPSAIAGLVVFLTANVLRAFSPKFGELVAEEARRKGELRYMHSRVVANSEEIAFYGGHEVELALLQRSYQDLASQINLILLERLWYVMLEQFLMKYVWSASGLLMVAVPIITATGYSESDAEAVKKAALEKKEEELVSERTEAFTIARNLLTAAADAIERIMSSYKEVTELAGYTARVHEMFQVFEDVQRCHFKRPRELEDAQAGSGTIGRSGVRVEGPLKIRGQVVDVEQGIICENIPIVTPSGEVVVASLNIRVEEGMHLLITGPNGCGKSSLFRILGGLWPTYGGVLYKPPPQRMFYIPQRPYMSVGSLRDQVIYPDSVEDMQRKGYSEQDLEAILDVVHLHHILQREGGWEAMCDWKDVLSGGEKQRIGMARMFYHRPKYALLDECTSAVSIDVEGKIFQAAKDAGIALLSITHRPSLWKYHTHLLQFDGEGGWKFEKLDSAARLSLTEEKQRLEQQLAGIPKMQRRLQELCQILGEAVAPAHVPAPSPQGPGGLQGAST
Nature of the test: ATPase assay (colorimetric Pi release). The class given is biochemical. The settings on record: varying ATP, with or without C22:0-CoA, 2 mM MgCl2, LMNG + CHS, pH 7.5, 37 °C; Michaelis-Menten fit.

The target in test [2] is T1, chABCD1 (chimeric ABCD1). As to the kind of experiment: substrate-stimulated ATPase assay (colorimetric Pi release). The class given is biochemical.
Test [3] concerns the target chimeric ABCD1, C-terminal helix truncated variant (ΔGlu694-Thr745) (Caenorhabditis elegans | human) (UniProt O45730).

Turning to `Nc1ncnc2c1ncn2[C@@H]1O[C@H](COP(=O)(O)OP(=O)(O)OP(=O)(O)O)[C@@H](O)[C@H]1O` [ATP], the Km entry in test [1] was “The data points were fitted with a Michaelis-Menten equation”. As usually defined, the EC50 is the concentration that produces a half-maximal response. Low values mean greater potency, high ones weaker potency. The compound `CCCCCCCCCCCCCCCCCCCCCCCC(=O)SCCNC(=O)CCNC(=O)[C@H](O)C(C)(C)COP(=O)(O)OP(=O)(O)OC[C@H]1O[C@@H](n2cnc3c(N)ncnc32)[C@H](O)[C@@H]1OP(=O)(O)O` [C24:0-CoA] gave an EC50 in test [2] of around 2 µM. For “chimeric ABCD1, C-terminal helix truncated variant (ΔGlu694-Thr745) (from UniProt O45730 1-65; P33897 64-693)”, the Vmax of C22:0-CoA-stimulated ATPase activity (LMNG + CHS, 2 mM ATP) (mol Pi/min/mol protein) in test [3] worked out at 17.5. As for `CCCCCCCCCCCCCCCCCCCCCCCCCC(=O)SCCNC(=O)CCNC(=O)[C@H](O)C(C)(C)COP(=O)(O)OP(=O)(O)OC[C@H]1O[C@@H](n2cnc3c(N)ncnc32)[C@H](O)[C@@H]1OP(=O)(O)O` [C26:0-CoA], the 50% effective concentration (EC50) in test [2] is around 2 µM.

(Values after PMC9177597, “Structural basis of substrate recognition and translocation by human very long-chain fatty acid transporter ABCD1” (Nature Communications, 2022).)
